From ChEMBL document CHEMBL1287784, “A facile 1,3-dipolar cycloaddition of azomethine ylides to 2-arylidene-1,3-indanediones: synthesis of dispiro-oxindolylpyrrolothiazoles and their antimycobacterial evaluation” (2010)
In brackets after ≈: the same amount, converted by molar mass.

Tested on: Mycobacterium tuberculosis
Experiment: Antimycobacterial activity against Mycobacterium tuberculosis H37Rv by agar dilution method
Assay type: functional

Structure (SMILES) | MIC
O=C1c2ccccc2C(=O)C12[C@@H](c1ccccc1)[C@@H]1CSCN1[C@@]21C(=O)Nc2ccc([N+](=O)[O-])cc21 | 12.6 µM (≈ 6.27 µg/mL)
COc1cc([C@H]2[C@@H]3CSCN3[C@@]3(C(=O)Nc4ccc(Cl)cc43)C23C(=O)c2ccccc2C3=O)cc(OC)c1OC | 21.7 µM (≈ 12.5 µg/mL)
COc1ccc([C@H]2[C@@H]3CSCN3[C@@]3(C(=O)Nc4ccc([N+](=O)[O-])cc43)C23C(=O)c2ccccc2C3=O)cc1OC | 11.2 µM (≈ 6.24 µg/mL)
COc1cc([C@H]2[C@@H]3CSCN3[C@@]3(C(=O)Nc4ccc([N+](=O)[O-])cc43)C23C(=O)c2ccccc2C3=O)cc(OC)c1OC | 10.6 µM (≈ 6.23 µg/mL)
COc1cc([C@H]2[C@@H]3CSCN3[C@@]3(C(=O)Nc4ccccc43)C23C(=O)c2ccccc2C3=O)cc(OC)c1OC | > 46.1 µM
O=C1c2ccccc2C(=O)C12[C@@H](c1ccccc1)[C@@H]1CSCN1[C@@]21C(=O)Nc2ccc(Cl)cc21 | 25.7 µM (≈ 12.5 µg/mL)
O=C1c2ccccc2C(=O)C12[C@@H](c1ccc(Cl)cc1)[C@@H]1CSCN1[C@@]21C(=O)Nc2ccc(Cl)cc21 | 2.99 µM (≈ 1.56 µg/mL)
CC(C)c1ccc([C@H]2[C@@H]3CSCN3[C@@]3(C(=O)Nc4ccc(Cl)cc43)C23C(=O)c2ccccc2C3=O)cc1 | 11.8 µM (≈ 6.24 µg/mL)
COc1ccc([C@H]2[C@@H]3CSCN3[C@@]3(C(=O)Nc4ccc(Cl)cc43)C23C(=O)c2ccccc2C3=O)cc1 | 24.2 µM (≈ 12.5 µg/mL)
O=C1c2ccccc2C(=O)C12[C@@H](c1ccccc1Br)[C@@H]1CSCN1[C@@]21C(=O)Nc2ccc(Cl)cc21 | 2.8 µM (≈ 1.58 µg/mL)
COc1ccc([C@H]2[C@@H]3CSCN3[C@@]3(C(=O)Nc4ccc(Cl)cc43)C23C(=O)c2ccccc2C3=O)cc1OC | 22.9 µM (≈ 12.5 µg/mL)
O=C1c2ccccc2C(=O)C12[C@@H](c1ccc(Cl)cc1)[C@@H]1CSCN1[C@@]21C(=O)Nc2ccc([N+](=O)[O-])cc21 | 2.9 µM (≈ 1.54 µg/mL)
O=C1c2ccccc2C(=O)C12[C@@H](c1ccc(Br)cc1)[C@@H]1CSCN1[C@@]21C(=O)Nc2ccc([N+](=O)[O-])cc21 | 1.4 µM (≈ 0.807 µg/mL)
COc1ccc([C@H]2[C@@H]3CSCN3[C@@]3(C(=O)Nc4ccc([N+](=O)[O-])cc43)C23C(=O)c2ccccc2C3=O)cc1 | 11.9 µM (≈ 6.28 µg/mL)
O=C1c2ccccc2C(=O)C12[C@@H](c1ccccc1Cl)[C@@H]1CSCN1[C@@]21C(=O)Nc2ccc([N+](=O)[O-])cc21 | 5.9 µM (≈ 3.14 µg/mL)
O=C1c2ccccc2C(=O)C12[C@@H](c1ccccc1Cl)[C@@H]1CSCN1[C@@]21C(=O)Nc2ccc(Cl)cc21 | 6 µM (≈ 3.13 µg/mL)

Structure (SMILES) | MIC
O=C1c2ccccc2C(=O)C12[C@@H](c1ccccc1)[C@@H]1CSCN1[C@@]21C(=O)Nc2ccccc21 | > 55.2 µM
O=C1c2ccccc2C(=O)C12[C@@H](c1cccc(F)c1)[C@@H]1CSCN1[C@@]21C(=O)Nc2ccc([N+](=O)[O-])cc21 | 3 µM (≈ 1.55 µg/mL)
O=C1c2ccccc2C(=O)C12[C@@H](c1ccc(Cl)cc1)[C@@H]1CSCN1[C@@]21C(=O)Nc2ccccc21 | 25.7 µM (≈ 12.5 µg/mL)
CC(C)c1ccc([C@H]2[C@@H]3CSCN3[C@@]3(C(=O)Nc4ccccc43)C23C(=O)c2ccccc2C3=O)cc1 | 25.3 µM (≈ 12.5 µg/mL)
O=C1c2ccccc2C(=O)C12[C@@H](c1cccc(Br)c1)[C@@H]1CSCN1[C@@]21C(=O)Nc2ccc([N+](=O)[O-])cc21 | 2.7 µM (≈ 1.56 µg/mL)
COc1ccc([C@H]2[C@@H]3CSCN3[C@@]3(C(=O)Nc4ccccc43)C23C(=O)c2ccccc2C3=O)cc1 | > 51.8 µM
Cc1ccccc1[C@H]1[C@@H]2CSCN2[C@@]2(C(=O)Nc3ccccc32)C12C(=O)c1ccccc1C2=O | 53.6 µM (≈ 25 µg/mL)
O=C1Nc2ccc([N+](=O)[O-])cc2[C@]12N1CSC[C@H]1[C@H](c1cccc(Cl)c1Cl)[C@]21Cc2ccccc2C1=O | 2.8 µM (≈ 1.55 µg/mL)
O=C1c2ccccc2C(=O)C12[C@@H](c1ccccc1Cl)[C@@H]1CSCN1[C@@]21C(=O)Nc2ccccc21 | 25.7 µM (≈ 12.5 µg/mL)
O=C1c2ccccc2C(=O)C12[C@@H](c1ccccc1Br)[C@@H]1CSCN1[C@@]21C(=O)Nc2ccccc21 | 11.8 µM (≈ 6.27 µg/mL)
O=C1c2ccccc2C(=O)C12[C@@H](c1cccc([N+](=O)[O-])c1)[C@@H]1CSCN1[C@@]21C(=O)Nc2ccccc21 | 25.1 µM (≈ 12.5 µg/mL)
COc1ccc([C@H]2[C@@H]3CSCN3[C@@]3(C(=O)Nc4ccccc43)C23C(=O)c2ccccc2C3=O)cc1OC | > 48.8 µM
CC[C@@H](CO)NCCN[C@@H](CC)CO [ETHAMBUTOL] | 7.6 µM (≈ 1.55 µg/mL)
NNC(=O)c1ccncc1 [ISONIAZID] | 0.4 µM (≈ 0.0549 µg/mL)
CO[C@H]1/C=C/O[C@@]2(C)Oc3c(C)c(O)c4c(O)c(c(/C=N/N5CCN(C)CC5)c(O)c4c3C2=O)NC(=O)/C(C)=C\C=C\[C@H](C)[C@H](O)[C@@H](C)[C@@H](O)[C@@H](C)[C@H](OC(C)=O)[C@@H]1C [RIFAMPIN] | 0.1 µM (≈ 0.0823 µg/mL)
